Counter-ions that a name gives are not always drawn.
The compounds below were run on NRG1-ERBB4 signaling (assay: Nrg1-ERBB4-PIK3R1 split TEV co-culture compound screen of the NIH Clinical Collection). Conditions: not given.
Type: cell-based, human
`Oc1ccc2c3c1O[C@H]1[C@@H](O)CC[C@@]4(O)[C@@H](C2)N(CC2CCC2)CC[C@]314` [Nalbuphine] showed a Z-SCORE of -1.86.

Same assay, conditions: NIH Clinical Collection NCC-003 raw data; compounds ranked by Z-score; 'flagged' given instead of a Z-score
`COc1ccccc1OCCNCC(O)COc1cccc2[nH]c3ccccc3c12` (centres unmarked) [Carvedilol] showed a Z-SCORE of -1.89. In the case of `CCOC(=O)C1=C(C)NC(C)=C(C(=O)OC)C1c1cccc([N+](=O)[O-])c1` (centres unmarked) [NITRENDIPINE], the Z-SCORE is reported as -1.82. `Nc1nc(N)nc(-c2cc(Cl)ccc2Cl)n1` [IRSOGLADINE MALEATE] showed a Z-SCORE of -1.2. With `CN(C)CCOc1ccc(/C(=C(/CCCl)c2ccccc2)c2ccccc2)cc1` [TOREMIFENE CITRATE] the Z-SCORE was “flagged”. `CC(=O)O[C@@]12CO[C@@H]1C[C@H](O)[C@@]1(C)C(=O)[C@H](O)C3=C(C)[C@@H](OC(=O)[C@H](O)[C@@H](NC(=O)OC(C)(C)C)c4ccccc4)C[C@@](O)([C@@H](OC(=O)c4ccccc4)[C@H]21)C3(C)C` [DOCETAXEL] showed a Z-SCORE of -1.13.

Same assay, conditions: compound screen of the NIH Clinical Collection, sheet raw data NCC-003; compounds ranked by Z-score
Work on `CS(=O)(=O)O.O=C(O[C@H]1C[C@H]2CC3C[C@@H](C1)N2CC3=O)c1c[nH]c2ccccc12` [DOLASETRON MESYLATE] yielded a Z-SCORE of 0.23. Work on `COc1cc2nc(N(C)CCCNC(=O)C3CCCO3)nc(N)c2cc1OC` (centres unmarked) [ALFUZOSIN] yielded a Z-SCORE of 0.03. Work on `CCCCC1=NC2(CCCC2)C(=O)N1Cc1ccc(-c2ccccc2-c2nnn[nH]2)cc1` [Irbesartan, reference compound] yielded a Z-SCORE of 4.26. Work on `CC(=O)N1CCN(c2ccc(OCC3COC(Cn4ccnc4)(c4ccc(Cl)cc4Cl)O3)cc2)CC1` (centres unmarked) [Ketoconazole] yielded a Z-SCORE of -1.1. `C[C@]12C/C(=C/O)C(=O)C[C@@H]1CC[C@@H]1[C@@H]2CC[C@@]2(C)[C@H]1CC[C@]2(C)O` [Oxymetholone] was tested, and the Z-SCORE was 1.79. In the case of `COCCOC(=O)C1=C(C)NC(C)=C(C(=O)OC(C)C)C1c1cccc([N+](=O)[O-])c1` (centres unmarked) [NIMODIPINE], the Z-SCORE is reported as -0.83. `C[C@]12Cc3c[nH]nc3C[C@@H]1CC[C@@H]1[C@@H]2CC[C@@]2(C)[C@H]1CC[C@]2(C)O` [Stanozolol] gave a Z-SCORE of 0.07. `Cc1sc(N)c(C(=O)c2cccc(C(F)(F)F)c2)c1C` [PD 81723] gave a Z-SCORE of 0.13. In the case of `COC(=O)C1=C(C)NC(C)=C(C(=O)OC)C1c1ccccc1[N+](=O)[O-]` [NIFEDIPINE], the Z-SCORE is reported as 2.68. Compound `CS(=O)(=O)O.O=C1CC2(CCCC2)CC(=O)N1CCNCC1COc2ccccc2O1` (centres unmarked) has a Z-SCORE of 0.35. Compound `CC(=O)Oc1ccccc1C(=O)Nc1ncc([N+](=O)[O-])s1` [NITAZOXANIDE] has a Z-SCORE of 1.04. `CN1C(=O)CN=C(c2ccccc2)c2cc([N+](=O)[O-])ccc21` [Nimetazepam] was tested, and the Z-SCORE was 0.16. In the case of `CNC1=Nc2ccc(Cl)cc2C(c2ccccc2)=[N+]([O-])C1` [CHLORDIAZEPOXIDE], the Z-SCORE is reported as 0.41. `COc1c(N2C[C@@H]3CCCN[C@@H]3C2)c(F)cc2c(=O)c(C(=O)O)cn(C3CC3)c12` [MOXIFLOXACIN HCl] showed a Z-SCORE of -0.35. `CCCCC[C@H](O)/C=C/[C@H]1[C@H](O)CC(=O)[C@@H]1CCCCCCC(=O)O` [Prostaglandin E1] gave a Z-SCORE of 0.18. With `CCOc1cc(CC(=O)N[C@@H](CC(C)C)c2ccccc2N2CCCCC2)ccc1C(=O)O` [REPAGLINIDE] the Z-SCORE was 1.38. `CN(C)[C@@H]1C(O)=C(C(=O)NCN2CCCC2)C(=O)[C@@]2(O)C(O)=C3C(=O)c4c(O)cccc4[C@@](C)(O)[C@H]3C[C@@H]12` [ROLITETRACYCLINE] was tested, and the Z-SCORE was -0.5. `CC(O)CO.N[C@@H](C(=O)N[C@@H]1C(=O)N2C(C(=O)O)=C(CSc3cn[nH]n3)CS[C@H]12)c1ccc(O)cc1` [CEFATRIZINE PROPYLENE GLYCOL] was tested, and the Z-SCORE was 0.04. `O=C1CN=C(c2ccccc2)c2cc([N+](=O)[O-])ccc2N1` [Nitrazepam] was tested, and the Z-SCORE was -0.23. For `CCC(C)(C)NC(=Nc1cccnc1)NC#N`, the Z-SCORE was 0.49. Compound `C[C@]12CC[C@H](O)CC1=CC[C@@H]1[C@@H]2CC[C@]2(C)C(=O)CC[C@@H]12` [DEHYDROEPIANDROSTERONE] has a Z-SCORE of 0.4. Work on `CC(COc1ccccc1Cc1ccccc1)N1CCCCC1.O=P(O)(O)O` (centres unmarked) [BENPROPERINE PHOSPHATE] yielded a Z-SCORE of -0.08. `CN(CCOc1ccc(CC2SC(=O)NC2=O)cc1)c1ccccn1.Cl` (centres unmarked) [ROSIGLITAZONE HCl] showed a Z-SCORE of 0.11. `CN(C)CC[C@@H](c1ccc(Cl)cc1)c1ccccn1` [DEXCHLORPHENIRAMINE MALEATE] showed a Z-SCORE of -0.67. `CN(C/C=C/C#CC(C)(C)C)Cc1cccc2ccccc12` [TERBINAFINE HCl] was tested, and the Z-SCORE was -0.44. Compound `CN1[C@@H](CC(=O)c2ccccc2)CCC[C@H]1C[C@H](O)c1ccccc1` [LOBELINE HYDROCHLORIDE] has a Z-SCORE of 0.14.

Same assay, conditions: compounds at 10 μM, 24 h; PC12 split TEV assay cells co-cultured with Nrg1-expressing PC12 cells; analysed with cellHTS2
For `CC(=O)OCC[N+](C)(C)C` [Miochol, reference compound], the Z-SCORE was 0.45. `CC[C@H](C)C(=O)O[C@H]1C[C@@H](C)C=C2C=C[C@H](C)[C@H](CC[C@@H]3C[C@@H](O)CC(=O)O3)[C@H]21` [Lovastatin, reference compound] was tested, and the Z-SCORE was “flagged”. Compound `NS(=O)(=O)Cc1noc2ccccc12` [Zonisamide, reference compound] has a Z-SCORE of -0.47. Compound `C[C@]12CCC(=O)C=C1CC[C@@H]1[C@@H]2[C@@H](O)C[C@@]2(C)[C@H]1CC[C@]2(O)C(=O)CO` [HYDROCORTISONE, reference compound] has a Z-SCORE of -1.61. `CN(C)c1nc(N(C)C)nc(N(C)C)n1` [Altretamine, reference compound] gave a Z-SCORE of -0.4. For `Clc1ccc2nsnc2c1NC1=NCCN1` [Tizanidine hydrochloride, reference compound], the Z-SCORE was -0.96. In the case of `O=C(O)c1cc(=O)c2c(OCC(O)COc3cccc4oc(C(=O)O)cc(=O)c34)cccc2o1` [Cromolyn Sodium, reference compound], the Z-SCORE is reported as 1.88. For `C=C(CC)C(=O)c1ccc(OCC(=O)O)c(Cl)c1Cl` [ETHACRYNIC ACID, reference compound], the Z-SCORE was -1.25. Compound `CCCCC1=NC2(CCCC2)C(=O)N1Cc1ccc(-c2ccccc2-c2nnn[nH]2)cc1` [Irbesartan, reference compound] has a Z-SCORE of 4.26. For `CNCCC=C1c2ccccc2CCc2ccccc21` [Pamelor, reference compound], the Z-SCORE was 0.41. With `Cc1cnc(C(=O)NCCc2ccc(S(=O)(=O)NC(=O)NC3CCCCC3)cc2)cn1` [GLIPIZIDE, reference compound] the Z-SCORE was 0.73. In the case of `CNCCC(Oc1ccc(C(F)(F)F)cc1)c1ccccc1` (centres unmarked) [Prozac, reference compound], the Z-SCORE is reported as -1.46. `CCN(CC)CCNC(=O)c1cc(Cl)c(N)cc1OC.Cl` [Maxolon, reference compound] was tested, and the Z-SCORE was -1.12. `OCCN(CCO)c1nc(N2CCCCC2)c2nc(N(CCO)CCO)nc(N3CCCCC3)c2n1` [DIPYRIDAMOLE, reference compound] was tested, and the Z-SCORE was -1.46. For `C[C@H]1O[C@@H](O[C@H]2[C@@H](O)C[C@H](O[C@H]3[C@@H](O)C[C@H](O[C@H]4CC[C@@]5(C)[C@H](CC[C@@H]6[C@@H]5C[C@@H](O)[C@]5(C)[C@@H](C7=CC(=O)OC7)CC[C@]65O)C4)O[C@@H]3C)O[C@@H]2C)C[C@H](O)[C@@H]1O` [DIGOXIN, reference compound], the Z-SCORE was -1.73. `CC(C)(S)C(N)C(=O)O` (racemic) [DL-PENICILLAMINE, reference compound] gave a Z-SCORE of 2.02. Compound `CC[N+](C)(C)c1cccc(O)c1` [EDROPHONIUM CHLORIDE, reference compound] has a Z-SCORE of -1.53. With `CC1(C)S[C@@H]2[C@H](NC(=O)COc3ccccc3)C(=O)N2[C@H]1C(=O)O` [Penicillin V, reference compound] the Z-SCORE was 0.66. For `NC12CC3CC(CC(C3)C1)C2` [Symmetrel, reference compound], the Z-SCORE was 0.15. `CCn1cc(C(=O)O)c(=O)c2cc(F)c(N3CCNCC3)cc21` [NORFLOXACIN, reference compound] showed a Z-SCORE of -0.08. In the case of `CCC[C@@H]1C[C@@H](C(=O)N[C@@H]([C@H]2O[C@H](SC)[C@H](O)[C@@H](O)[C@H]2O)[C@@H](C)O)N(C)C1` [Lincomycin hydrochloride, reference compound], the Z-SCORE is reported as 0.53. For `O=C1C(CC[S+]([O-])c2ccccc2)C(=O)N(c2ccccc2)N1c1ccccc1` (centres unmarked) [Sulfinpyrazone, reference compound], the Z-SCORE was 0.99. Compound `CN(C)CCCN1c2ccccc2CCc2ccc(Cl)cc21` [Anafranil, reference compound] has a Z-SCORE of 0.12. In the case of `Cc1cccc(CN2CCN(C(c3ccccc3)c3ccc(Cl)cc3)CC2)c1.Cl` (centres unmarked) [Duremesin, reference compound], the Z-SCORE is reported as -0.76. `NS(=O)(=O)c1cc(C2(O)NC(=O)c3ccccc32)ccc1Cl` (centres unmarked) [Chlorthalidone, reference compound] was tested, and the Z-SCORE was 0.87. In the case of `O=C(O)COCCN1CCN(C(c2ccccc2)c2ccc(Cl)cc2)CC1` (centres unmarked) [Cetirizine, reference compound], the Z-SCORE is reported as 0.89. `CO[C@H]1/C=C/O[C@@]2(C)Oc3c(C)c(O)c4c(O)c(c(/C=N/N5CCN(C)CC5)c(O)c4c3C2=O)NC(=O)/C(C)=C\C=C\[C@H](C)[C@H](O)[C@@H](C)[C@@H](O)[C@@H](C)[C@H](OC(C)=O)[C@@H]1C` [RIFAMPICIN, reference compound] was tested, and the Z-SCORE was -0.22. For `COc1ccc(Cl)cc1C(=O)NCCc1ccc(S(=O)(=O)NC(=O)NC2CCCCC2)cc1` [Glyburide, reference compound], the Z-SCORE was -0.5. `CC(C(=O)O)c1cccc(C(=O)c2ccccc2)c1` (centres unmarked) [KETOPROFEN, reference compound] gave a Z-SCORE of 0.15. In the case of `Cn1cc[nH]c1=S` [Methimazole, reference compound], the Z-SCORE is reported as 3. Compound `COC(=O)Nc1nc2ccc(C(=O)c3ccccc3)cc2[nH]1` [Mebendazole, reference compound] has a Z-SCORE of -4.63. `CN(C)CCC=C1c2ccccc2COc2ccccc21` [DOXEPIN HYDROCHLORIDE, reference compound] gave a Z-SCORE of 1.31. Work on `CC(=O)O.NCc1ccc(S(N)(=O)=O)cc1` [4-(AMINOMETHYL)BENZENESULFONAMIDE ACETATE, reference compound] yielded a Z-SCORE of 0.49. `CC1=C(/C=C/C(C)=C/C=C/C(C)=C/C(=O)O)C(C)(C)CCC1` [Retinoic acid, reference compound] gave a Z-SCORE of 1.72. `CC(=O)OCC(=O)[C@@]12OC(C)(C)O[C@@H]1C[C@H]1[C@@H]3C[C@H](F)C4=CC(=O)C=C[C@]4(C)[C@@]3(F)[C@@H](O)C[C@@]12C` [FLUOCINOLONE ACETONIDE 21-ACETATE, reference compound] was tested, and the Z-SCORE was 0.81. `Cc1ccccc1C(OCCN(C)C)c1ccccc1` (centres unmarked) [Norflex, reference compound] was tested, and the Z-SCORE was 0.74.

Reference: paper PMC5653977 (EMBO Molecular Medicine, 2017)
